Data on two compounds can be found in US10618939B2, “Hydrocarbon-stapled polypeptides for enhancement of endosome-lysosomal degradation” (The Hong Kong Polytechnic University, priority 2016, dated 2020).

Test [1] concerns the target T1, Beclin 1 coiled coil domain (Rattus norvegicus, UniProt Q91XJ1).
T1 construct: thioredoxin-6xHis fusion (3C protease site) (cleaved yes); made in house; host or cells: Escherichia coli BL21 (DE3)
The experiment in a line: Light Scattering (LS) profile, dimer-to-monomer transition of Beclin 1 coiled coil domain. The format is biochemical. An excerpt:
Tat sequence (SEQ ID NO: 13: YGRKKRRQRRR) was linked in front of all peptides except the rhodamine B labeled one to enhance cell permeability. The computationally optimized stapled peptide SP4 (SEQ ID NO: 4) was chosen and synthesized by a commercial vendor following the synthetic method pioneered by Kim et. al. (Kim, Grossmann et al. 2011) (FIG. 1C). The purified product was confirmed by mass spectroscopy and HPLC. The importance of the hydrocarbon staple in maintaining the α-helical structure of the designed peptide was confirmed by circular dichroism (CD) measurements (FIG. 1D). […] The Light Scattering (LS) profile of Beclin 1 coiled coil domain in absence of SP4 (SEQ ID NO: 4) indicates a homodimer with predicted molecular weight of 24.8 kDa.

In another test the test system is HEK293T cells. The experiment in a line: LC3 lipidation western blot in HEK293T cells. The format is cell-based. The settings on record: 10 μM and 20 μM, absence or presence of chloroquine (50 μM). As to the method:
Transient DNA transfection was performed using Lipofectamine 2000 (Invitrogen). For Co-IP experiment to measure interaction between UVRAG and endogenous Beclin 1, FLAG-tagged UVRAG plasmids were transfected into HEK293T cells. […] For immunoblotting assay of LC3-II, p62 and EGFR degradation, FLAG-tagged UVRAG mutant plasmids were transfected into HEK293T cells, HeLa cell stably expressing GFP-LC3 and A549 NSCLC cells respectively. Cells were lysed in IP buffer (25 mM HEPES PH 7.5, 10 mM MgCl2, 150 mM NaCl, 1 mM EDTA.2Na, 1% Nonidet P-40, 1% Triton X-100 and 2% glycerol) or Laemmli sample buffer (62.5 mM Tris-HCl, pH 6.8, 2% SDS, 25% glycerol, 5% β-mercaptoethanol) with freshly added EDTA-free protease inhibitor cocktail (Roche). Protein lysate was either directly subject to immunoblot assay or Co-IP. For Co-IP, Lysates were incubated with FLAG magnetic beads (Sigma) overnight at 4° C. The beads were washed with 1×IP lysis buffer 5 times and then eluted with 2×SDS sample buffer.

Another test concerns EGFR in HEK293T cells. Nature of the test: EGFR degradation assay in HEK293T cells. The format is cell-based. How it is done: (§1) HEK293T or A549 cells in 6-well plate were washed with PBS two times and serum-starved overnight in DMEM. EGFR endocytosis was induced by incubation with DMEM medium (with 20 mM HEPES and 0.2% BSA) containing 200 ng/mL of EGF (Invitrogen). Cells were collected at each time point after EGF stimulation and lysed in Laemmli sample buffer (62.5 mM Tris-HCl, pH 6.8, 2% SDS, 25% glycerol, 5% β-mercaptoethanol). 20 μg protein lysate was collected for each time point, analyzed by SDS-PAGE and immunoblotted with anti-EGFR antibody (1:2000, Santa Cruz Biotechnology).

For test [2], the system named is wild type EGFR in A549 cell line. The experiment in a line: EGFR degradation assay in A549 cells. The format is cell-based. The settings on record: A549 NSCLC. How it is done: as §1
In test [3] the test system is mutated EGFR in H1975 cell lines. Nature of the test: EGFR degradation assay in H1975 cells. The settings on record: H1975 NSCLC. The format is cell-based.
Test [4] deals with GFP-tagged Beclin 1 in A549 cell. Nature of the test: Confocal colocalization with GFP-Beclin 1 in A549 cells. The format is cell-based. Conditions: A549 cells transiently expressing GFP-Beclin 1, 20 μM, 30 minutes. How it is done: A549 cells transiently expressing GFP-Beclin 1 were treated with 20 μM Rhodamine-SP4 (SEQ ID NO: 4) for 30 minutes and observed under a confocal microscope.

Entries after “also recorded” stand apart in the source; their conditions may differ. Bridge positions count the residues as written; N and C are the ends. Square brackets hold non-standard residues; d marks the D form. Ends that are not written are not given here. Peptide text beside a SMILES is read from it. R8 = C=CCCCCCC[C@@](C)(N)C(=O)O; S5 = C=CCCC[C@](C)(N)C(=O)O

T1 sequence (Q91XJ1 174-266 limits assumed): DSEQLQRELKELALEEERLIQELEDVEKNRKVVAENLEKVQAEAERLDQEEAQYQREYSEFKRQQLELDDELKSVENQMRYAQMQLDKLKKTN

As to `CC[C@H](C)[C@H](NC(=O)[C@H](CC(C)C)NC(=O)[C@H](CCCNC(=N)N)NC(C)=O)C(=O)N[C@@H](CO)C(=O)N[C@@H](CCC(=O)O)C(=O)N[C@@H](CC(C)C)C(=O)N[C@]1(C)CCCCCC/C=C/CCC[C@@](C)(C(=O)N[C@@H](C)C(N)=O)NC(=O)[C@H](CCCNC(=N)N)NC(=O)[C@H](CCC(N)=O)NC(=O)[C@H](CCCCN)NC(=O)[C@H](CCC(=O)O)NC(=O)[C@H](CCCNC(=N)N)NC(=O)[C@H](CC(=O)O)NC1=O` [SP4] (Ac-RLISEL[R8]DREKQR[S5]A-NH2; staple (E) 7-14; N-terminus and C-terminus assumed), the “dimer-to-monomer transition in Beclin 1 coiled coil domain” value in test [1] was “can induce dimer-to-monomer transition”. In the test with HEK293T cells, the LC3 lipidation result was “enhanced LC3 lipidation in dosage-dependent manner”. Also, the EGFR degradation result (with EGFR in HEK293T cells; in test [2]; in test [3]) was “significantly enhanced EGFR degradation” throughout.

For “Rhodamine-labeled SP4: rhodamine B labeled SP4, without Tat sequence (RLISEL[R8]DREKQR[S5]A; staple 7-14 (inferred); also: rhodamine B label, position not given here)”, the “colocalization with GFP-Beclin 1” value in test [4] was “colocalizes; also recorded: co-localized well”.
